# Reference: patent publication US10301298B2, “Methods, compounds, and compositions for the treatment of angiotensin-related diseases” (University of Southern California, priority 2013, dated 2019)
# How the values were obtained:
# [1] = molecular target: T1, AT2R (Homo sapiens, UniProt P50052); assay: AT2R displacement assay with radiolabeled Ang II; type: binding; conditions: displacement of radiolabeled Ang II or analogs; read-out: EC50 displacing Ang II in the AT2R displacement assay
# T1 sequence (P50052 1-363): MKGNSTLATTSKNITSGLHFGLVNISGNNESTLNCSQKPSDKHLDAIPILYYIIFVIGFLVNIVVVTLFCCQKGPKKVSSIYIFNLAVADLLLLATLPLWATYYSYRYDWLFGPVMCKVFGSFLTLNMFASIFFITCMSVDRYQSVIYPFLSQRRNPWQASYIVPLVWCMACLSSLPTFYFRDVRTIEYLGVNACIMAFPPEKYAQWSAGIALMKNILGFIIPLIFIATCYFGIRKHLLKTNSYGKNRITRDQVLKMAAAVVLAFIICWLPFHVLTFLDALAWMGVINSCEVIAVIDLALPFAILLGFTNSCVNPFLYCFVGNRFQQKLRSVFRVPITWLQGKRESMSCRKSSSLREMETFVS
# Description: Compound 7 was evaluated in vitro for its ability to compete with ratholabeled Ang II or analogs in a displacement assay for AT1R and AT2R receptors.
# [2] = molecular target: T2, Mas (Homo sapiens, UniProt P04201); assay: Competition binding assay, displacement of fluorescent Ang(1-7) from Mas-transfected CHO cells; design: concentration or dose not given beside the values; conditions: CHO cells transfected with Human mas1, on ice
# T2 construct: expressed in transfected cells
# T2 sequence (P04201 1-325): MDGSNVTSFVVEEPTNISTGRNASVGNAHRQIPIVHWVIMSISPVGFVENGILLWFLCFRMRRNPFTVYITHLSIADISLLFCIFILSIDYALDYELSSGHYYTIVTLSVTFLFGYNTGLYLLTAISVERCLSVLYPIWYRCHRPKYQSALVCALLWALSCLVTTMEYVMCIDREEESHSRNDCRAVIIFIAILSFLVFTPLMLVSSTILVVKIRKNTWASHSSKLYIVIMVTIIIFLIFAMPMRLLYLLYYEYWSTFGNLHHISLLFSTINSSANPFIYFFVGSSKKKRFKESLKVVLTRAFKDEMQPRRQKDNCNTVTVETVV
# Description: CHO cells stably transfected with recombinant Human mas1 proto-oncogen driven by the human cytomegalovirus were grown to 80% confluency. The cells were detached with trypsin and harvested by centrifugation. Cells were washed three times in progressively colder buffers. The final number of cells per assay was 5×10^5. All subsequent steps were performed on ice. Test compound was added to the cells for 10 minutes prior to addition of fluorescently labeled A(1-7). After 10 minutes further incubation, the cells were washed to remove unbound A(1-7) and the fluorescence bound was read at an excitation of 490 nm and an emission of 520 nm.
# [3] = molecular target: T2, Mas; assay: NO production in CHO cells stably transfected with Human Mas1; type: cell-based; conditions: for NO production with co-administration of A779: with A779, selective Mas antagonist, 1×10^−7 M
# Description: Transfected cells that express Mas were used to identify and evaluate provided compounds as Mas agonists, by promoting NO production as readouts. CHO cells stably transfected with pTEJ-8 vector containing recombinant Human Mas1 clone were grown to confluency. Cells were washed three times for 30/5/5 minutes with prewarmed (37° C.) Tyrodes Salts (supplemented with 1 g/L NaHCO3, and 1.9 g/L d-Glucose). Cells were incubated for a short time in 700 μL of supplemented Tyrodes salts containing 10 μM PTIO, 100 μM DAN, and 1 mM L-arginine. When using antagonist for competition assays, cells were exposed to the inhibitor at 1×10^−7 M for 15 minutes, before additional drugs are added.
# Chemicals (10^−8 to 10^−6 M or the maximum concentration found not to cause cytotoxicity) to be screened were added to the cell medium and the plates were agitated for 1 minute before being placed into the incubator for 2 hours. After 2 hours, cellular supernatants were transferred to opaque 96 well plates, and the fluorescence intensity was recorded at an ex/em of 380/425.
# [4] = system: db/db mice; assay: Liver lipid levels, Oil Red O staining, in db/db mice; type: in vivo; conditions: 500 mcg/kg/day, 14 days
# Description: The lipid levels found in the liver was evaluated in db/db animals treated for 14 days with vehicle, 500 mcg/kg/day Ang(1-7) or Compound 7. Livers isolated from mice were harvested. Liver tissue sections were washed with cold saline and frozen in the presence of optimum cutting temperature (OCT) formulation. Tissues were then cut into 10-μm sections using a cryostat. Oil Red O staining and H&E staining were performed according to published procedures (Yang et al., 2013). The tissues were observed and images acquired using a light microscope (Olympus BX51) (FIG. 6).
# [5] = Oral bioavailability in C57Bl/6 mice; type: in vivo; conditions: 500 μg/kg, oral gavage vs intravenous
# Description: Compound 7 was evaluated for oral bioavailability at 500 μg/kg in C57Bl/6 mice. The drug was given by intravenous injection or by oral gavage and blood was collected at 0.5, 1, 2, 4, 8, 24 hours into heparinized tubes. The level of drug in the blood was measured by liquid chromatograph-mass spectrometry. Bioavailability was determined using the following ratio AUCIG/AUCIV (FIG. 10).
# [6] = system: C57Bl/6 mice; assay: Acute toxicity in C57Bl/6 mice; type: in vivo; conditions: 500 μg/kg subcutaneous or intravenous, 7 days after treatment
# Description: Compound 7 was evaluated for acute toxicity at 500 μg/kg in C57Bl/6 mice that was given as either a subcutaneous or intravenous injection, and its safety was evaluated for 7 days after treatment.
smiles,measurement,setting,value
"CCCCOC(=O)NS(=O)(=O)c1ccc(OC(F)(F)F)cc1-c1ccc(Cn2ccnc2)cn1 [Compound 7, butyl (2-(5-((1H-imidazol-1-yl)methyl)pyridin-2-yl)-4-(trifluoromethoxy)phenyl)sulfonylcarbamate]",EC50,[1],> 10000 nM
same,% Displacement,[2],28.1%
same,ability to enhance NO production (fluorescence),[3]; Mas-transfected CHO cells,concentration dependent increase in NO
same,EC50,"[3]; Mas-transfected CHO cells, 2 hours",10 nM
same,NO production with co-administration of A779,[3],back to baseline
same,NO production with co-administration of A779,[3]; listed as compound 7,back to baseline fluorescence
same,Oil Red staining of liver (lipid deposition) compared with db/db controls,[4],reduced Oil Red staining
same,oral bioavailability (AUCIG/AUCIV),[5],30%
same,acute toxicity,[6],No overt signs of toxicity
